Measurements from the NIST ThermoML archive (doi:10.1016/j.fluid.2014.03.004).

Details: 101.33 kPa, Liquid; for mass density: Vibrating tube method; for electrical conductivity: Alternating current cell with electrodes; for viscosity: Falling or rolling sphere viscometry

CCCCn1cc[n+](CCC(C)C)c1.O=S(=O)([N-]S(=O)(=O)C(F)(F)F)C(F)(F)F
Details	electrical conductivity [S/m]	mass density [kg/m3]	viscosity [mPa·s]
293.15 K	–	1322.37	–
298.15 K	0.145	1318.1	93
303.15 K	–	1313.65	73.2
303.16 K	0.182	–	–
313.15 K	0.273	1304.82	46.5
323.15 K	0.389	1296.03	31.5
333.15 K	0.529	1287.3	22.4
343.15 K	0.694	1278.62	–
353.15 K	–	1269.99	12.6
353.16 K	0.883	–	–

CCCC[n+]1ccn(C2CCCC2)c1.O=S(=O)([N-]S(=O)(=O)C(F)(F)F)C(F)(F)F
Details	electrical conductivity [S/m]	mass density [kg/m3]	viscosity [mPa·s]
293.15 K	–	1383.1	–
298.15 K	0.197	1378.52	85.1
303.15 K	–	1373.96	67.9
303.16 K	0.246	–	–
313.15 K	0.361	1364.86	44.3
323.15 K	0.504	1355.84	30.8
333.15 K	0.668	1346.87	22.3
343.15 K	0.878	1337.96	16.7
353.15 K	1.11	1329.11	13

CCCCC[n+]1ccn(CCCC)c1.O=S(=O)([N-]S(=O)(=O)C(F)(F)F)C(F)(F)F
Details	electrical conductivity [S/m]	mass density [kg/m3]	viscosity [mPa·s]
293.15 K	–	1322.07	–
298.15 K	0.164	1317.6	75.9
303.15 K	–	1313.16	61.5
303.16 K	0.205	–	–
313.15 K	0.303	1304.29	40.3
323.15 K	0.427	1295.48	28
333.15 K	0.58	1286.72	20.2
343.15 K	0.757	1278.02	–
353.15 K	–	1269.36	11.6
353.16 K	0.96	–	–
